The source of these data is publication PMC6266276 (Viruses, 2018).

Several values for one entry are separate records, joined by “and”; a condition that tells them apart may be missing. Equal entries are not always repeated. Entries after “also recorded” stand apart in the source; their conditions may differ. Where two headings read alike, the source gives them in different places. Where only a bound is given, the exact number is not on record here.

Series [1] deals with phosphorylated eIF4E (p-eIF4E). It counts as cell-based.
Series [2] is described as follows: in vitro. The note with it: African green monkey.
For series [3], the system named is porcine epidemic diarrhea virus (PEDV). Nature of the series: microbe, parasite or virus in culture. The format is cell-based, porcine epidemic diarrhea virus (PEDV) strain CV777. The note with it: for IC50: Porcine epidemic diarrhea virus, Vero, read-out: IC50, half maximal inhibitory concentration.
Series [4] can be described thus: in vitro. The note with it: human.
Series [5] relates to VSV. Particulars: cited from earlier work.
The subject of series [6] is Newcastle disease virus (NDV). Nature of the series: microbe, parasite or virus in culture. The format is cell-based, Newcastle disease virus (NDV) strain NA-1. Particulars: for IC50: read-out: IC50, half maximal inhibitory concentration.
Series [7] relates to vesicular stomatitis virus (VSV). The format is cell-based, vesicular stomatitis virus (VSV) strain Indiana.
The test system of series [8] is herpes simplex virus type 1 (HSV-1). Nature of the series: microbe, parasite or virus in culture. The format is cell-based, herpes simplex virus type 1 (HSV-1) strain F.
Series [9] has as its system Vero cells.
For series [10] the following is noted: pig, in vivo.
The conditions of series [11]: chicken, in vivo.
The subject of series [12] is mouse hepatitis coronavirus (MHV). The note with it: HHT at 125 nM ref 53; cited from earlier work.
Series [13] has as its system HeLa cells.
For series [14] the following is noted: mouse, in vivo.
Series [15] deals with HEK293T cells.
The test system of series [16] is porcine epidemic diarrhea virus (PEDV). Also noted: species or system porcine epidemic diarrhea virus (PEDV) strain CV777. The note with it: pig, in vivo.
For series [17], the system named is avian influenza virus (AIV). Also noted: species or system avian influenza virus (AIV) strain H9-WD. Particulars: in vivo.
The test system of series [18] is acute myeloid leukemia. Particulars: mice, HHT 1.0 mg/kg ref 26; cited from earlier work.
Series [19] has as its system hepatitis B virus (HBV). The note with it: HHT at concentrations below 2 µM ref 52; cited from earlier work.
Series [20] deals with Newcastle disease virus (NDV). Also noted: species or system Newcastle disease virus (NDV) strain NA-1. Particulars: in vivo, 0.2 mg/kg.
Series [21] relates to pseudorabies virus (PRV). It counts as cell-based, pseudorabies virus (PRV) strain Fa.
Series [22] deals with chikungunya virus. The note with it: HHT at 1 µM ref 38; cited from earlier work.
For series [23], the system named is bovine viral diarrhea virus (BVDV). Particulars: HHT at concentrations below 2 µM ref 52; cited from earlier work.
In series [24] the test system is Newcastle disease virus (NDV). Also noted: species or system Newcastle disease virus (NDV) strain NA-1. Particulars: in vivo.

For `Nc1ncnc2n[nH]c(Nc3ccc(F)cc3)c12` [CGP57380], in series [1], the “cellular total eIF4E level” value is on record as “without an effect on total eIF4E protein level” and the p-eIF4E levels entry is on record as “prevent the phosphorylation of eIF4E”.
On to `O=c1c(O)c(-c2ccc(O)c(O)c2)oc2cc(O)cc(O)c12` [Quercetin], for which, in series [2], the CC50 is more than 1000 µM. In addition, in [3], the “SI, Selectivity index = CC50/IC50” value was more than 145 and the IC50 was 6.9 µM.
In turn, `NC(=O)c1ncn([C@@H]2O[C@H](CO)[C@@H](O)[C@H]2O)n1` [Ribavirin] returned a CC50 in series [4] of 2820 µM. Moreover, in series [5], the “inhibition of VSV titer in cells” value is given as 2.5 orders of magnitude. Moreover, the “SI, Selectivity index = CC50/IC50” value in [6] amounted to 64. In addition, the IC50 in series [6] (avian paramyxovirus 1, HeLa) amounted to 44.2 µM. For the same compound, the “concentrations at which antiviral activity was displayed” value in series [7] is given as “over 100 µM”.
In the case of `COC(=O)C[C@](O)(CCCC(C)(C)O)C(=O)O[C@@H]1C(OC)=C[C@]23CCCN2CCc2cc4c(cc2[C@H]13)OCO4` [HHT, homoharringtonine], in series [8], the HSV-ICP8 level result is “strong reduction”; the “SI, Selectivity index = CC50/IC50” value is listed as 40; the viral replication entry was “strong reduction in viral replication”. Further, the IC50 in series [8] (Human alphaherpesvirus 1, Vero, read-out: IC50, half maximal inhibitory concentration) worked out at 0.139 µM. Also, the cell viability result in series [9] is “No measurable decrease in cell viability”. The CC50 in [4] turned out to be 1.92 µM. Further, the 50% toxicity dose in series [10] came out at 0.2 mg/kg. The “animals for which side effects were fatal” value in series [10] (0.2 mg/kg) is “about 50%”. The same compound had a 50% toxicity dose in [11] of 0.4 mg/kg. For the same compound, the CC50 in series [2] stood at 5.58 µM. For the same compound, the “inhibition of MHV in vitro” value in series [12] is listed as “high-magnitude inhibition”. Besides, the cell viability entry in series [13] is “No measurable decrease in cell viability”. For the same compound, in [14], the “inflammatory reaction in lung” value is “No obvious inflammatory reaction”. In addition, the cell viability entry in [15] is on record as “no measurable decrease in cell viability”. For the same compound, in series [3], the “PEDV-N levels, time-of-addition” value was “strong reductions”; the “PEDV-N protein and mRNA levels” value is reported as “strong reduction”; the “SI, Selectivity index = CC50/IC50” value amounted to 50; the “concentration that completely inhibited infection” value came to 500 nM. In [3], the “infection rate, time-of-addition” value is “less than 30%”; the “reduction of viral yields” value was 1.9 orders of magnitude; the viral yields entry was “completely suppressed”; the IC50 is 0.112 µM. Further, the “inhibitory activity and death” value in series [16] is reported as “optimal inhibitory activity without death”. For the same compound, the “pathological change in tissues and symptoms” value in [16] (0.05 mg/kg) was “survived without pathogenic changes in tissues and symptoms”. In [16] (0.05 mg/kg/day), the “mRNA levels of PEDV-N in blood” value is on record as “greatly decreaseed” and the “mRNA levels of PEDV-N in the intestine” value is on record as “greatly decreaseed”. In addition, in [17], the lung inflammation entry was “decreased local inflammatory reaction but aggravated overall inflammation; also recorded: moderately attenuated inflammation” and the “number of AIV positive cells in lung” value is recorded as “No obvious reduction”. The “acute myeloid leukemia in vivo” value in series [18] was “completely eradicate acute myeloid leukemia”. For the same compound, the “antiviral efficacy on HBV DNA levels” value in series [19] is “no protective effects”. Moreover, in series [20], the “mRNA level of NDV-NP in blood” value was “significantly decreased”; the “mRNA level of NDV-NP in the liver and lung” value is reported as “significantly decreased”; the “pathological change in tissues and symptoms” value is “did not exhibit a pathological change in tissues or symptoms; also recorded: survived without pathogenic changes in tissues and symptoms”. In addition, in [6], the NDV-NP level result is on record as “strong reduction”; the “SI, Selectivity index = CC50/IC50” value came out at 107; the “concentration that completely inhibited infection” value is given as 100 nM; the “morphology and number of HeLa cells compared to mock infected sample” value is “no difference in morphology and number”. Moreover, the “production of recombinant NDV expressing GFP” value in series [6] is recorded as “greatly reduced”. In addition, the 90% effect concentration (IC90) (in general, the concentration at which the effect reaches the 90% level) in series [6] (avian paramyxovirus 1, HeLa, 24 h) was found to be 0.04 µM. Also, in series [6] (avian paramyxovirus 1, HeLa), the IC50 was determined as 0.018 µM. In series [7], the “VSV-G levels, time-of-addition” value is “strong reductions”; the “inhibitory effect against viral infection, pre-treatment” value is reported as “minimal inhibitory effect”; the “reduction of the viral yields, co-/post-treatment” value is reported as “complete reduction”; the “reduction of viral yields” value is 1.5 orders of magnitude. In addition, in series [7], the “viral protein G levels of VSV (VSV-G)” value was “strong reduction”; the viral reduction was 6.5 orders of magnitude and 5 orders of magnitude; the viral yields result is recorded as “dramatically reduced”. In series [21], the PRV-gC level entry was “strong reduction” and the viral replication result is on record as “strong reduction in viral replication”. Besides, the “inhibition of viral yield” value in series [22] is given as 2–3 orders of magnitude. In addition, the “antiviral efficacy on BVDV infection” value in [23] is reported as “no protective effects”. In [1], the “accumulation of Mcl-1” value is listed as “gradually reduced”, the “cellular total eIF4E level” value is “unaffected”, the “p-eIF4E induced by ectopic expression of wild-type eIF4E” value is on record as “decreased the accumulation of p-eIF4E” and the p-eIF4E levels result is on record as “gradually reduced”. Besides, the “p-eIF4E levels induced by viral infection, in parallel with viral protein” value in [1] was “gradually reduced”. Besides, in series [24], the “effect on viral infection in chicken embryos” value is given as “slight effect; also recorded: completely inhibited viral infection”; the “reduction of HAU values” was “one and three”.
